PMC9511493, “2-(Fluoromethoxy)-4′-(S-methanesulfonimidoyl)-1,1′-biphenyl (UCM-1306), an Orally Bioavailable Positive Allosteric Modulator of the Human Dopamine D1 Receptor for Parkinson’s Disease” (Journal of Medicinal Chemistry, 2022)
“And” between values parts separate entries of the source, which are not always exact repeats. Equal values may be shown once.

Tests used:
mouse D1R = molecular target: T1, mouse D1R (Mus musculus, UniProt Q61616); test: potentiator-mode cAMP assay in mouse CAD neuroblastoma cell line; type: cell-based; conditions: mouse CAD neuroblastoma cells
T1 construct: human SK-N-MC and mouse CAD neuroblastoma cell lines; endogenous in cells; host or cells: mouse CAD neuroblastoma cell line
Protocol: In order to ascertain if this allosteric potentiation was due to a modulation on DA affinity, radioligand binding assays in the presence of DA IC50 (4 μM) were carried out.
Compound 26 was tested in the potentiator-mode cAMP assay at different fixed concentrations (1, 5, and 10 μM). […] Therefore, it should have negligible direct activating effects on the human D1R in the absence of the endogenous ligand.
Figure 3 (A) Concentration–response curves in human D1R for cAMP production of DA alone (black) and in the presence of different concentrations of compound 26. (B) Concentration–response curves in human D1R of DA (black), 10 μM 26 for 10 min (red), and 10 μM 26 for 10 min then washing with assay buffer (blue). (C) Concentration–response curves in mouse D1R of DA alone (black) and in the presence of 10 μM 26 (red). (D) Concentration–response curve in human D1R of compound 26 in the presence of DA EC70 concentration. (E) Concentration–response curves in human D1R of DA (black) and compound 26 (red). (F) Concentration–response curves in human D1R of DA (red), after preincubation for 1 h with 10 μM DA (black), with 10 μM 26 (green), and with both 10 μM DA and 10 μM 26 (blue).

human dopamine D1R = molecular target: T2, human dopamine D1R (Homo sapiens, UniProt P21728); test: radioligand binding assay with [3H]SCH23390 at human D1R membranes
T2 construct: purchased Perkin Elmer
Protocol: Binding assays were carried out by using plasma membranes (12 μg/well) expressing human dopamine D1R (Perkin Elmer). […] After this time, the well content was filtered through a Millipore manifold and membranes were washed four times with assay buffer. The plate was dried and radioactivity was measured in a Microbeta Trilux liquid scintillation reader (Perkin Elmer). Non-specific binding was determined in the presence of 1 μM (+)-butaclamol. Data were normalized to the percentage of specific binding and fitted to a 4-parameter logistic equation using with Prism v2.1 software (GraphPad Inc). For the calculation of the affinity ratio of DA in the presence of the allosteric modulators, data were fitted according to the equations reported by Lazareno and Birdsall.[44]

hERG potassium channel = molecular target: T3, hERG potassium channel (Homo sapiens, UniProt Q12809); test: hERG ion channel inhibition (Fluxor potassium assay, CHO cells); type: cell-based; conditions: blockade of the K+ channel current at 10 μM
T3 construct: expressed in transfected cells; host or cells: CHO cell line
Protocol: CYP1A2 and CYP2C19, 7- methoxy- 4(trifluoromethyl)coumarin for CYP2C9, 3-[2-(N,N- diethyl -N-methylammonium)ethyl]-7- methoxy- 4- methylcoumarin for CYP2D6, and 7- benzyloxytrifluoromethylcoumarin for CYP3A4), to give the final assay concentrations in a reaction volume of 200 µL. Reactions were terminated after specific time for each cytochrome by addition of STOP solution (0.5 M 80:20 ACN/TrisHCl). […]
hERG ion channel inhibition. The assay was carried out using a CHO cell line transfected with the hERG potassium channel. C ells were seeded (2500 cells/well) 72 h before the assay on a 384-well black plate (Greiner 781091). Cell s were maintained at 37 °C in a 5% CO2 atmosphere for 24 h and at 30 °C in a 5% CO 2 atmosphere for 48 h. hERG activity was measured by using the FluxorTM Potassium Ion Chanel Assay Kit (Thermo Fisher F10016). Medium was replaced for 20 µL of loading buffer and cells were incubated for 60 min at 25 °C, protected from direct light. After incubation, l oading buffer was replaced for a ssay buffer and compounds were incubated for 30 min at 25 °C. After this time, 5 µL of stimulus buffer was added to each well and fluorescence was read (λ ex = 490 nm, λem = 525 nm) every second after the establishment of a baseline line using an imaging plate reader system (FDSS7000EX, Hamamatsu®). The fluorescent signal was […]

CYP2D6 = molecular target: T4, CYP2D6 (Homo sapiens, UniProt P10635); test: cytochrome inhibition, fluorescence assay, CYP2D6; type: in vitro ADME
T4 construct: host or cells: insect cell microsomes
Protocol: (§1) Cytochrome inhibition. The objective of this study was to screen the potential of test […]
(§2) performed using recombinant isoforms CYP1A2, CYP2C9, CYP2C19, CYP2D6, and CYP3A4, and probe substrates with fluorescent detection.
(§3) Assays were conducted in a 200 µL volume in 96-well microtiter plates (COSTAR 3915).
(§4) Addition of cofactor-buffer mixture (KH2PO4 buffer, 1.3 mM NADP, 3.3 mM MgCl2, 3.3 mM glucose -6- phosphate, and 0.4 U/mL glucose -6- phosphate dehydrogenase), supersomes control, standard inhibitors (furafyline, tranylzypromine, ketoconazole, sulfaphenazole, and quinidine from Sigma Aldrich) and test compound to the plate was carried out by a liquid handling station (Zephyr Caliper). The plate was then pre-incubated at 37 °C for 5 min, and the reaction was initiated by the addition of the pr e - warmed enzyme/substrate (E/S) mix. […]
(§5) Fluorescence per well was measured using a fluorescence plate reader (Tecan Infinite M1000 pro) and percentage of inhibition was calculated. hERG ion channel inhibition. […]

CYP2C9 = molecular target: T5, CYP2C9 (Homo sapiens, UniProt P11712); test: cytochrome inhibition, fluorescence assay, CYP2C9; type: in vitro ADME
T5 construct: host or cells: insect cell microsomes
Protocol: as §1, §2, §3, §4, §5

human D1R = molecular target: T6, human D1R (Homo sapiens, UniProt P21728); test: potentiator-mode cAMP assay (HTRF) in SK-N-MC neuroblastoma cells endogenously expressing human D1R; type: cell-based; conditions: for potentiation of DA effect at different fixed concentrations: 3: 0.1–10 μM, 26: 1, 5 and 10 μM; for cAMP response in the absence of DA (agonist activity): no DA
T6 construct: endogenously expressed human D1R in the SK-N-MC cell line (ATCC); host or cells: SK-N-MC human neuroblastoma cells

[1] = Table S1, concentration not given
[2] = percentage of inhibition at 10 μM

T6 sequence (P21728 whole entry): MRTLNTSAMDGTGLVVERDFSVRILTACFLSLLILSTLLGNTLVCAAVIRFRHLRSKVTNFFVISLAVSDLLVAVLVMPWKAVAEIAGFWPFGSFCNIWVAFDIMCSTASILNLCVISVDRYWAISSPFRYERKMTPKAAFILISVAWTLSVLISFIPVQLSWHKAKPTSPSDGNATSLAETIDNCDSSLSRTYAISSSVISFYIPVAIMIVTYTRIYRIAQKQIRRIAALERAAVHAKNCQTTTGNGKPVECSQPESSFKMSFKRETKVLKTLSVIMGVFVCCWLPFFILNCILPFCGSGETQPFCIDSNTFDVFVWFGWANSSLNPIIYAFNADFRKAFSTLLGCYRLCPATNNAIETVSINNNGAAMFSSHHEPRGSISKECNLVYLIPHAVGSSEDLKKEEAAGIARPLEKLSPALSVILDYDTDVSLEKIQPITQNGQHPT
T4 sequence (P10635 whole entry): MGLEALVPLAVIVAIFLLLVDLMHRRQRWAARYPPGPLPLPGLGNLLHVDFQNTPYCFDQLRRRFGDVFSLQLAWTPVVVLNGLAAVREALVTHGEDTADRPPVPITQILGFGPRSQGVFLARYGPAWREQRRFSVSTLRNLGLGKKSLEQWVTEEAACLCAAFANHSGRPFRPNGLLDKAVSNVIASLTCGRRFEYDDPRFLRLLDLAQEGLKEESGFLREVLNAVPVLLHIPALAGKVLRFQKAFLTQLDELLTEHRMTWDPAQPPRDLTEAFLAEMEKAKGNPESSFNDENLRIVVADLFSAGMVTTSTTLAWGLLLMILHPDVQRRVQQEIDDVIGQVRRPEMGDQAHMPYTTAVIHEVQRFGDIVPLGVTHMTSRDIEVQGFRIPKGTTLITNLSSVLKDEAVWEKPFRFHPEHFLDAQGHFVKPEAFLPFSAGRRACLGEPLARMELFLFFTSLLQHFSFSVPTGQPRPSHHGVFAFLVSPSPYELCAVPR
T3 sequence (Q12809 whole entry): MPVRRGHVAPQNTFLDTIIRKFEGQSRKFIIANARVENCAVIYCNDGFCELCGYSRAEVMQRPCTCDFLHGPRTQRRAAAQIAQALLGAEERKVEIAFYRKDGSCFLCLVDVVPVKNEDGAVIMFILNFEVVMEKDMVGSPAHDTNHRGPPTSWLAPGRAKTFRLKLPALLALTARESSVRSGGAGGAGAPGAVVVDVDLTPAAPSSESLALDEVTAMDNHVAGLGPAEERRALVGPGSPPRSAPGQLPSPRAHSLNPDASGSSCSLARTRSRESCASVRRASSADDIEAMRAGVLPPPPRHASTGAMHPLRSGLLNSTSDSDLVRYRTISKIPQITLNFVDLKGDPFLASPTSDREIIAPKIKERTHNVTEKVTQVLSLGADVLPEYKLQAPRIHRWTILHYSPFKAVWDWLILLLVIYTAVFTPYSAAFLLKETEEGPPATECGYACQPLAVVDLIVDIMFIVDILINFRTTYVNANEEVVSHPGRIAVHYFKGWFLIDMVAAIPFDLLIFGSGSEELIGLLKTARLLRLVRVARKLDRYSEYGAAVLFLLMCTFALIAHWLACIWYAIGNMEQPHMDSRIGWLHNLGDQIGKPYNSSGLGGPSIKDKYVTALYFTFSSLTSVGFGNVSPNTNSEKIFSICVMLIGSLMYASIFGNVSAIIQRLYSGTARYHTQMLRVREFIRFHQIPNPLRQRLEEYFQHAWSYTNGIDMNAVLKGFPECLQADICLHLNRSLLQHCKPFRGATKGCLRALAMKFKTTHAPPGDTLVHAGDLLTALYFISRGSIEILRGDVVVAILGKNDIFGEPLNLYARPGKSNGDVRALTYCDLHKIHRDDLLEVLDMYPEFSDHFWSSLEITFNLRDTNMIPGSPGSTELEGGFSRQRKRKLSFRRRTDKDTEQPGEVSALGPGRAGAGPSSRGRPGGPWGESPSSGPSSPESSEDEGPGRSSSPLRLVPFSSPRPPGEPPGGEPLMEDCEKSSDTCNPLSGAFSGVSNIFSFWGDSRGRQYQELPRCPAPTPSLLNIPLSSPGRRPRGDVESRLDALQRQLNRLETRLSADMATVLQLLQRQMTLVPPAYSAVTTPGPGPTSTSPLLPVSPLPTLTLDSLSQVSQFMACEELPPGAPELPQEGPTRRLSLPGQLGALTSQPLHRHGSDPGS
T5 sequence (P11712 whole entry): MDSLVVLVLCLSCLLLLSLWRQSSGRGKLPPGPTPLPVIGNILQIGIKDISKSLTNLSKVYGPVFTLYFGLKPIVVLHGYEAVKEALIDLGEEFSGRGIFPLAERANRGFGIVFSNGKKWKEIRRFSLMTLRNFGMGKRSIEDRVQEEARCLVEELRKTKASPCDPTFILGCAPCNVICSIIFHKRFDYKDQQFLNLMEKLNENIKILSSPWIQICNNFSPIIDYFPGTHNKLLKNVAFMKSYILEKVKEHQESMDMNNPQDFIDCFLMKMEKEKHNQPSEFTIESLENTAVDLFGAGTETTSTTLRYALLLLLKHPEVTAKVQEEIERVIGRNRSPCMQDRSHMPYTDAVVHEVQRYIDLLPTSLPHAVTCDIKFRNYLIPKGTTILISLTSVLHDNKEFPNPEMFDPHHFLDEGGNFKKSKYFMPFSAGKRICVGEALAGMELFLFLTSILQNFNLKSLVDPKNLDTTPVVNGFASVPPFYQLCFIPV
T2 sequence (P21728 whole entry): as the sequence (P21728 whole entry) above
T1 sequence (Q61616 whole entry): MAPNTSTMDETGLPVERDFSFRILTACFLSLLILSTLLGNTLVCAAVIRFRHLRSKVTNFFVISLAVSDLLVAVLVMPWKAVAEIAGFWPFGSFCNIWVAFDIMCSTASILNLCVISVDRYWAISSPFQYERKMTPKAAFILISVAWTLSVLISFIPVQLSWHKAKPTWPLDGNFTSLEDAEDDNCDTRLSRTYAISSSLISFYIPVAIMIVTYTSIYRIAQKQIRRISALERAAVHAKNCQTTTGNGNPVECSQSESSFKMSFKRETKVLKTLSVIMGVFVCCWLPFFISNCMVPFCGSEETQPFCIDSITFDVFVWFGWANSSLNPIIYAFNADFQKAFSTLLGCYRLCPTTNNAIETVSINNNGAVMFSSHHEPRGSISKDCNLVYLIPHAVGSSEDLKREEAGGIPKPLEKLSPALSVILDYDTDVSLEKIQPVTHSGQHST

SMILES | potentiation of DA effect in mouse D1R (mouse D1R) | displacement of the radioligand [3H]SCH-23390 (human dopamine D1R; at 10 μM) | hERG inhibition (%) (hERG potassium channel) | CYP2D6 (%) (CYP2D6; [1]) | CYP2C9 (%) (CYP2C9; [1]) | potentiation of DA effect at different fixed concentrations (human D1R) | cAMP response in the absence of DA (agonist activity) (human D1R) | affinity ratio of [3H]SCH-23390 (human dopamine D1R; in the presence of 4 μM DA) | CYP2D6 (%) (CYP2D6; [2]) | CYP2C9 (%) (CYP2C9; [2]) | reversibility of the potentiation (human D1R; 10 μM for 10 min then washing with assay buffer) | receptor desensitization (human D1R; preincubation for 1 h with 10 μM compound)
O=Cc1ccc(-c2ccccc2OCF)cc1 [Compound 3, 2′-(Fluoromethoxy)[1,1′-biphenyl]-4-carbaldehyde] | concentration-dependent potentiation of DA effect | 12% | 11 ± 2% | inactive | inactive | concentration-dependent potentiation of DA effect | No cAMP response | – | – | – | – | –
CS(=N)(=O)c1ccc(-c2ccccc2OCF)cc1 (stereo not shown) [Compound 26, 2-(Fluoromethoxy)-4′-(S-methanesulfonimidoyl)-1,1′-biphenyl] | PAM behavior was also observed | – | 21% | – | – | potentiation of the DA Emax in a concentration-dependent manner | no cAMP response | concentration-dependent increase of the affinity ratio values | 3% and 3 ± 1% | 38 ± 3% | reversible effect | does not induce receptor desensitization
